System: SEM cells
Assay: cell viability relative to DMSO control; higher = less cytotoxic
Details: 48 h
Outline: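 Library compounds in DMSO were pin-dosed into 1536-well plates (5 μl) holding NOMO1 or SEM (500 cells/well) or P12-Ichikawa (1000 cells/well) leukemia cells, across an 11-point threefold series of 47 μM to 0.79 nM. Each cell line had been adapted for at least four passages in each medium. CellTiter-Glo One luminescence was read after 48 h at 37°C. Viability is the per-plate percentage relative to DMSO wells, with cell-free wells as background.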

[1] = HPLM + 10% dialyzed FBS, 0.000781 µM
[2] = HPLM + 10% dialyzed FBS, 0.00234 µM
[3] = HPLM + 10% dialyzed FBS, 0.00702 µM
[4] = HPLM + 10% dialyzed FBS, 0.0211 µM
[5] = HPLM + 10% dialyzed FBS, 0.0632 µM
[6] = HPLM + 10% dialyzed FBS, 0.19 µM
[7] = HPLM + 10% dialyzed FBS, 0.569 µM
[8] = HPLM + 10% dialyzed FBS, 1.71 µM
[9] = HPLM + 10% dialyzed FBS, 5.12 µM
[10] = HPLM + 10% dialyzed FBS, 15.4 µM
[11] = HPLM + 10% dialyzed FBS, 46.1 µM
[12] = RPMI 5 mM glucose + 10% FBS, 0.000781 µM
[13] = RPMI 5 mM glucose + 10% FBS, 0.00234 µM
[14] = RPMI 5 mM glucose + 10% FBS, 0.00702 µM
[15] = RPMI 5 mM glucose + 10% FBS, 0.0211 µM
[16] = RPMI 5 mM glucose + 10% FBS, 0.0632 µM
[17] = RPMI 5 mM glucose + 10% FBS, 0.19 µM
[18] = RPMI 5 mM glucose + 10% FBS, 0.569 µM
[19] = RPMI 5 mM glucose + 10% FBS, 1.71 µM
[20] = RPMI 5 mM glucose + 10% FBS, 5.12 µM
[21] = RPMI 5 mM glucose + 10% FBS, 15.4 µM
[22] = RPMI 5 mM glucose + 10% FBS, 46.1 µM
[23] = RPMI 5 mM glucose + 10% dialyzed FBS, 0.000781 µM
[24] = RPMI 5 mM glucose + 10% dialyzed FBS, 0.00234 µM
[25] = RPMI 5 mM glucose + 10% dialyzed FBS, 0.00702 µM
[26] = RPMI 5 mM glucose + 10% dialyzed FBS, 0.0211 µM
[27] = RPMI 5 mM glucose + 10% dialyzed FBS, 0.0632 µM
[28] = RPMI 5 mM glucose + 10% dialyzed FBS, 0.19 µM
[29] = RPMI 5 mM glucose + 10% dialyzed FBS, 0.569 µM
[30] = RPMI 5 mM glucose + 10% dialyzed FBS, 1.71 µM
[31] = RPMI 5 mM glucose + 10% dialyzed FBS, 5.12 µM
[32] = RPMI 5 mM glucose + 10% dialyzed FBS, 15.4 µM
[33] = RPMI 5 mM glucose + 10% dialyzed FBS, 46.1 µM

Row | Compound | cell viability [1] [%] | cell viability [2] [%] | cell viability [3] [%] | cell viability [4] [%] | cell viability [5] [%] | cell viability [6] [%] | cell viability [7] [%] | cell viability [8] [%] | cell viability [9] [%] | cell viability [10] [%] | cell viability [11] [%] | cell viability [12] [%] | cell viability [13] [%] | cell viability [14] [%] | cell viability [15] [%] | cell viability [16] [%] | cell viability [17] [%] | cell viability [18] [%] | cell viability [19] [%] | cell viability [20] [%] | cell viability [21] [%] | cell viability [22] [%] | cell viability [23] [%] | cell viability [24] [%] | cell viability [25] [%] | cell viability [26] [%] | cell viability [27] [%] | cell viability [28] [%] | cell viability [29] [%] | cell viability [30] [%] | cell viability [31] [%] | cell viability [32] [%] | cell viability [33] [%]
1 | Cn1cnc(-c2cc3nccc(Oc4ccc(NC(=S)NC(=O)Cc5ccccc5)cc4F)c3s2)c1 | 53.6 | 82.3 | 67.1 | 57.5 | 46 | 46.9 | 43.9 | 30.5 | 31.2 | 32.4 | 12.8 | 82.5 | 94.7 | 85.6 | 68.4 | 53.7 | 66.1 | 46.2 | 38.2 | 30.5 | 24.8 | 2.88 | 68.9 | 63.1 | 70 | 43.8 | 35.3 | 36 | 35.3 | 25.4 | 24.7 | 20.1 | 4.88
2 | O=C(O)[C@@H](c1ccc(OCc2ccc3ccccc3n2)cc1)C1CCCC1 | 116 | 124 | 122 | 114 | 123 | 45.5 | 125 | 114 | 43.4 | 113 | 95.6 | – | – | – | – | – | – | – | – | – | – | – | 109 | 151 | 120 | 127 | 148 | 52 | 129 | 124 | 19.4 | 114 | 83.1
3 | CC(=O)Oc1cc2c(s1)CCN(C(C(=O)C1CC1)c1ccccc1F)C2.Cl (stereo not given) | 84.3 | 102 | 103 | 113 | 115 | 112 | 110 | 122 | 120 | 101 | 68.5 | 71.3 | 96.9 | 88.7 | 96.7 | 90.8 | 101 | 94.2 | 100 | 101 | 82.1 | 53.3 | 76.1 | 106 | 103 | 111 | 107 | 114 | 110 | 117 | 115 | 78.6 | 54.4
4 | COc1cccc2c(NCc3ccccc3)nc(-n3c(N)nc4ccccc43)nc12 | 81.2 | 88.4 | 104 | 93.6 | 89.1 | 90.6 | 83.2 | 92.2 | 64.1 | 29.6 | 8.4 | 95.2 | 92.8 | 98.7 | 97.5 | 94.8 | 87.6 | 95 | 72.1 | 54.9 | 24.3 | 7.18 | 81.8 | 73.7 | 91.9 | 99.8 | 111 | 106 | 85.9 | 76.5 | 65.1 | 45.2 | 9.78
5 | COc1nccc(-c2c(-c3ccc(F)cc3)ncn2C2CCC(O)CC2)n1 (stereo not given) | 124 | 123 | 132 | 128 | 122 | 105 | 125 | 113 | 106 | 116 | 36.1 | 102 | 116 | 97.3 | 103 | 96.6 | 56.7 | 53.4 | 63.9 | 63.8 | 47.9 | 12.2 | 103 | 126 | 116 | 114 | 123 | 127 | 111 | 112 | 94.9 | 87.9 | 26.8
6 | C[C@H]1C[C@H]2[C@@H]3CCC4=CC(=O)C=C[C@]4(C)[C@H]3C(=O)C[C@]2(C)[C@@]1(O)C(=O)CO | 77 | 81.5 | 77.8 | 88.9 | 70.6 | 99.8 | 96.5 | 92.7 | 88.7 | 81.9 | 9.17 | 82.3 | 81.3 | 90.3 | 78.8 | 72.5 | 87 | 92.5 | 91.7 | 71.3 | 58.5 | 7.21 | 93.2 | 85.2 | 83.4 | 91.1 | 77.5 | 101 | 93.6 | 97.6 | 85.4 | 74.4 | 7.99
7 | CCCC1=N[N](C)C2=C1\N=C(/NC2=O)C3=CC(=CC=C3OCC)[S+]([O-])(=O)N4CCN(C)CC4 | 44.2 | 88.3 | 87.9 | 94.3 | 74 | 88.4 | 79.8 | 80.8 | 87 | 46.3 | 2.85 | 46.9 | 108 | 97.7 | 85.9 | 66.6 | 79.7 | 74 | 78 | 86.9 | 46.2 | 32.2 | 46.1 | 94.2 | 88.5 | 87.4 | 61.7 | 81.2 | 89.9 | 102 | 88.1 | 61.9 | 4.25
8 | O=C1CCC[C@@H]2[C@H]3CCC[N+]4([O-])CCC[C@@H](CN12)[C@@H]34 (stereo not given in full) | 61.8 | 68.2 | 84.1 | 86.2 | 96.2 | 94 | 89.4 | 92.1 | 71.9 | 27.1 | 78.6 | 84.7 | 87.4 | 93.9 | 94.7 | 89.1 | 101 | 96.6 | 99.5 | 71.5 | 18.8 | 86.8 | 89.7 | 68.5 | 82.2 | 97.9 | 85.4 | 96.6 | 102 | 81.4 | 91.1 | 24 | 88.7
9 | NCCCCCC(=O)O | 87.3 | 17 | 101 | 42.8 | 108 | 119 | 111 | 119 | 116 | 107 | 115 | 91.7 | 115 | 104 | 36.5 | 103 | 102 | 111 | 104 | 96.4 | 98 | 97.4 | 35.6 | 9.07 | 101 | 39.5 | 100 | 99.9 | 101 | 100 | 94.3 | 98 | 103
10 | C=CCc1cc(OC)c(O)c(C(=O)NCCO)c1 | 110 | 101 | 101 | 103 | 116 | 98.7 | 112 | 92 | 98.6 | 69.3 | 64.3 | 97.4 | 108 | 108 | 110 | 102 | 112 | 98.1 | 88 | 99.2 | 77.1 | 68.6 | 110 | 83.8 | 99.1 | 102 | 105 | 113 | 105 | 103 | 96.6 | 78.4 | 66.8
11 | CN1CCN(Cc2ccc(NC(=O)Nc3ccc(Oc4cc(NC(=O)C5CC5)ncn4)cc3)cc2C(F)(F)F)CC1 | 86.5 | 72.2 | 54.1 | 53.4 | 51.4 | 25 | 6.43 | 5.04 | 3.88 | 3.17 | 0.399 | 103 | 80.1 | 53.9 | 49.1 | 41.6 | 23 | 4.1 | 2.81 | 2.25 | 1.45 | 0.371 | 94.9 | 72.4 | 44.6 | 36.5 | 46 | 23.7 | 5.01 | 4.22 | 3.2 | 2.37 | 0.407
12 | CO[C@@H]1[C@@H](OC(N)=O)[C@@H](O)[C@H](OC2=CC=C3\C(=C(NC(=O)C4=CC=C([O-])C(=C4)CC=C(C)C)/C(=O)OC3=C2C)O)OC1(C)C | 106 | 110 | 123 | 97.7 | 118 | 116 | 102 | 101 | 121 | 98.7 | 117 | – | – | – | – | – | – | – | – | – | – | – | 105 | 106 | 109 | 114 | 111 | 115 | 109 | 101 | 107 | 81.5 | 110
13 | NC1CCC(Nc2nc(Nc3ccc(C(=O)N4CCCCC4)cc3)c3ncn(-c4cccc(F)c4)c3n2)CC1 (stereo not given) | 91.7 | 94.8 | 95.2 | 96.6 | 102 | 117 | 55 | 59.1 | 102 | 128 | 125 | 110 | 102 | 104 | 112 | 103 | 124 | 75.9 | 62.9 | 100 | 110 | 90.1 | 99.6 | 99 | 100 | 99.3 | 106 | 113 | 64.6 | 41.9 | 98.6 | 98.6 | 88.9
14 | C[C@H](NC(=O)Cc1cc(F)cc(F)c1)C(=O)N[C@@H]1C(=O)N(C)c2ccccc2-c2ccccc21 | 84.8 | 106 | 103 | 77.7 | 102 | 102 | 110 | 106 | 35.4 | 3.3 | 2.09 | 94.2 | 101 | 88.5 | 80.6 | 107 | 103 | 98.1 | 16 | 4.52 | 3.08 | 1.53 | 107 | 103 | 100 | 79.4 | 112 | 109 | 113 | 105 | 5.44 | 3.49 | 2.01
